Here are results for four compounds from patent publication US12721905B2, “Combination of anti-HER2 antibody-drug conjugate and PARP1 selective inhibitor” (AstraZeneca UK Limited, priority 2020, dated 2026).

One assay has as its system BRCA2 (−/−) DLD1 cells. Put plainly: PARP proliferation assay (4 day compound dosing), BRCA2 (-/-) DLD1. The settings on record: Homo sapiens, DLD-1, 96 h, read-out: BRCA2 −/− DLD-1 prolif 4 d IC50. Format: cell-based.
Another assay concerns DLD1 cells. Put plainly: PARP proliferation assay (4 day compound dosing), WT DLD1. The assay is classed as cell-based. The conditions noted are these: Homo sapiens, DLD-1, 96 h, read-out: WT DLD-1 prolif 4 d IC50.
For assay [1], the target named is T1, Recombinant full length PARP2 protein (Homo sapiens, UniProt Q9UGN5).
T1 construct: Recombinant full length PARP2 protein
T1 sequence (Q9UGN5 whole entry): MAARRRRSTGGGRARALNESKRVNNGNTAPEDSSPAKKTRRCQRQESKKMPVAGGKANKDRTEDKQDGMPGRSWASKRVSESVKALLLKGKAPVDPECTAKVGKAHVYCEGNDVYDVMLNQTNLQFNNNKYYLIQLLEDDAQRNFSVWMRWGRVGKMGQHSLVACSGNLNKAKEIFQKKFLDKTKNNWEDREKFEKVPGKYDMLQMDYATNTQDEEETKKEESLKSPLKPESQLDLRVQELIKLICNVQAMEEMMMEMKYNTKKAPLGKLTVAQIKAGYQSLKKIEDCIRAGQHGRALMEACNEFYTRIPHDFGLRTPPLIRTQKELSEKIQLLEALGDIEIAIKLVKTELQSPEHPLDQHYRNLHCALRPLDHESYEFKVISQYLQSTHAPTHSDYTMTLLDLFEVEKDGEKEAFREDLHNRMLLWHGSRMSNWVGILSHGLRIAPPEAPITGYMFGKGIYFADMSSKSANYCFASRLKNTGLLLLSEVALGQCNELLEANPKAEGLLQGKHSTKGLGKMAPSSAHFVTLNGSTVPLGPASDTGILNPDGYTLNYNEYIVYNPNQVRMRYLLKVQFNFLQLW
Put plainly: PARP fluorescence anisotropy binding assay, PARP2.

In the next assay the test system is 5637. Put plainly: High-throughput combination screen, 7-day CellTiter-Glo cell viability (Example 6), 5637. The settings on record: AZD5305 as single agent, HER2 mutant cell line 5637. Format: cell-based. The procedure: Combination activity was assessed based on a combination of the ΔEmax and Loewe synergy scores.
FIGS. 18A and 19A show matrices of measured cell viability signals. […] Values in the box represent the ratio of cells treated with drug A+B compared to DMSO control at day 7. All values are normalised to cell viability values at day 0. Values between 0 and 100 represent % growth inhibition and values above 100 represent cell death.
FIGS. 18B and 19B show Loewe excess matrices. Values in the box represent excess values calculated by the Loewe additivity model.
FIGS. 18C and 19C show HSA excess matrices. Values in the box represent excess values calculated by the HSA (Highest Single Agent) model.
For orientation: ATP-based viability assays read luminescence as a measure of living cells.

The subject of a further assay is NCI-N87 xenograft. Briefly: Antitumor test in vivo, NCI-N87 xenograft (Example 5). Also on record: species or system Female Nude mice. The settings on record: AZD5305 1 mg/kg PO QD for 28 days.

On to `CCc1cc2ncc(CN3CCN(c4ccc(C(=O)NC)nc4)CC3)cc2[nH]c1=O` [Example 4], for which, in the assay on BRCA2 (−/−) DLD1 cells, the IC50 is greater than 17 nM.
Consider `CCc1cc2ncc(CN3CCN(c4ccc(C(=O)NC)nc4C(F)(F)F)CC3)cc2[nH]c1=O` [Example 30], for which the IC50 with BRCA2 (−/−) DLD1 cells was 4 nM; with DLD1 cells, greater than 30000 nM.
On to `CCc1cc2ncc(CN3CCN(c4ccc(C(=O)NC)nc4C)CC3)cc2[nH]c1=O` [Example 31], for which, in assay [1], the IC50 was 3000 nM.
Consider `CCc1cc2ncc(CN3CCN(c4ccc(C(=O)NC)nc4)CC3)cc2[nH]c1=O` [Synthesis Example 4, 5-[4-[(7-ethyl-6-oxo-5H-1,5-naphthyridin-3-yl)methyl]piperazin-1-yl]-N-methyl-pyridine-2-carboxamide], for which the single agent activity result in the assay with 5637 is reported as “not active”. Further, the “TGI % day 41” value in the assay with NCI-N87 xenograft is listed as 40%.
